Values of other authors as cited in patent publication US20080280973A1, “Laulimalide Analogues as Therapeutic Agents” (priority 2004, published 2008).

Columns and labels:
[1] = test system: multi-drug resistant cell line SKVLB-1
[2] = test system: KB, P388, A549, HT29 and MEL28 cell lines
[3] = test system: HeLa cells, NCI/ADR cells, MDA-MB-435 cell line; conditions: relative to laulimalide; cell line not specified

| Molecule | IC50 [1] | anti-tumor potency range [2] | fold less potent than laulimalide [3] |
| --- | --- | --- | --- |
| C=C1C[C@H](C)C[C@@H]2CC=C[C@@H](C/C=C\C(=O)O[C@H]([C@@H](O)/C=C/[C@@H]3CC(C)=CCO3)C[C@@H]3O[C@H]3[C@@H](O)C1)O2 [Laulimalide, laulimalide] | 1200 nM | nanomolar range | – |
| C16-C17-des-epoxy laulimalide [des-epoxy analogue] | – | – | approximately 19 fold |
